Source: PMC6039382 (Journal of Cardiovascular Pharmacology, 2018)
Residue numbers refer to the chain shown, from its start. Entries after “also recorded” stand apart in the source; their conditions may differ. Blank lines part the entries; values can stand above or below the compound they belong to.

Tests used:
human PPAR-γ = molecular target: T1, human PPAR-γ (Homo sapiens, UniProt P37231); assay: PPAR-γ agonist transactivation assay, Gal4-LBD luciferase reporter cells
T1 sequence (P37231 238-503 limits assumed): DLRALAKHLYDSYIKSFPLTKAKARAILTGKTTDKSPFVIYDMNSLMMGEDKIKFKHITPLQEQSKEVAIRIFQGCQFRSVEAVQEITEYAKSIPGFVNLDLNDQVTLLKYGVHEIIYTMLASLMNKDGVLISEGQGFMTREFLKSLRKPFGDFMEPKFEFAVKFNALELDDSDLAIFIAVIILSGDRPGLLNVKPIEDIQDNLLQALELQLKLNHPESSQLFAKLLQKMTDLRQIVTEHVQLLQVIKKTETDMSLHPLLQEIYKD

mouse PPAR-α = molecular target: T2, mouse PPAR-α (Mus musculus, UniProt P23204); assay: PPAR-α agonist transactivation assay, Gal4-LBD luciferase reporter cells; type: cell-based; settings: gemcabene up to 300 μM
T2 sequence (P23204 239-466 limits assumed): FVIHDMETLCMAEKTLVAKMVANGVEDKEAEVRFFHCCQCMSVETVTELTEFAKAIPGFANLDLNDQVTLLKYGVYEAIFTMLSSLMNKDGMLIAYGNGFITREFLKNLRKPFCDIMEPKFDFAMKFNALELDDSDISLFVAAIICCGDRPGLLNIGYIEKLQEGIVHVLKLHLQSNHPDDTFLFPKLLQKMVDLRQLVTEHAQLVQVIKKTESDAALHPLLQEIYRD

human PPAR-α = molecular target: T3, human PPAR-α (Homo sapiens, UniProt Q07869); assay: as above; type: cell-based
T3 sequence (Q07869 239-466 limits assumed): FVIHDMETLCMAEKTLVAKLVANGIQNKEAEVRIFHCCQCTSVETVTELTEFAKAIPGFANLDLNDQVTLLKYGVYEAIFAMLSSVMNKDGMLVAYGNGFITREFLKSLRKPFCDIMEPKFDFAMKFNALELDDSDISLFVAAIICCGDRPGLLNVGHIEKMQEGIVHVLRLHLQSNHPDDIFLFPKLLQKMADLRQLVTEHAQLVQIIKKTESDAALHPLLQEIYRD

rat PPAR-α = molecular target: T4, rat PPAR-α (Rattus norvegicus, UniProt P37230); assay: as above; type: cell-based; settings: gemcabene up to 300 μM
T4 sequence (P37230 239-466 limits assumed): T2 sequence (P23204 239-466 limits assumed) with D27N

PPAR-γ = PPAR-γ agonist transactivation, statements made jointly for all species; type: cell-based, human, mouse, rat
PPAR-α = settings: cited from earlier work

agonist activity (in words) (human PPAR-γ): agonist activity
activation (human PPAR-γ; maximal): 16 fold
agonist activity (in words) (mouse PPAR-α): not against mouse and rat PPAR-α
maximal activation (human PPAR-α): 19 fold
agonist activity (in words) (human PPAR-α; gemcabene up to 300 μM): agonist activity
agonist activity (in words) (rat PPAR-α): not against mouse and rat PPAR-α
SMILES: COc1ccc(OC(=O)N(CC(=O)O)Cc2ccc(OCCc3nc(-c4ccccc4)oc3C)cc2)cc1 [Muraglitazar]

SMILES: CN(CCOc1ccc(CC2SC(=O)NC2=O)cc1)c1ccccn1 (centres unmarked) [Rosiglitazone]
Comments / agonist activity in words (PPAR-γ): strong activation; also recorded: potent agonist activity

SMILES: Cc1ccc(C)c(OCCCC(C)(C)C(=O)O)c1 [Gemfibrozil]
IC50/EC50 [Literature] (PPAR-α): 193 µM
